In general, MBC refers to the lowest tested concentration that kills the bacteria rather than only halting them.

Active and inactive are the calls of the source. The calls are words filed in the database; no cut-off is given here. Bounds are passed on as bounds.

The values that follow come from ChEMBL document CHEMBL1649229, “Efficacy of high doses of daptomycin versus alternative therapies against experimental foreign-body infection by methicillin-resistant Staphylococcus aureus” (Antimicrob Agents Chemother, 2009).

Test [1] deals with Staphylococcus aureus. In words: Bactericidal activity against log-phase methicillin-resistant Staphylococcus aureus HUSA 304 after 24 hrs by time kill analysis in presence of 50 mg/L calcium ions. Format: functional. The note with it: HUSA 304, 24 h.
The subject of test [2] is Staphylococcus aureus. The experiment in a line: Bactericidal activity against stationary-phase methicillin-resistant Staphylococcus aureus HUSA 304 after 24 hrs by time kill analysis in presence of 50 mg/L calcium ions. To be noted: HUSA 304, 24 h. It counts as functional.
For test [3], the system named is Staphylococcus aureus. The experiment in a line: Antimicrobial activity against log-phase methicillin-resistant Staphylococcus aureus HUSA 304 assessed as resistant bacteria in tissue cage fluid selected on 4 ug/ml of compound measured on day 8 post treatment. Format: functional, organism-based.
The subject of test [4] is Staphylococcus aureus. The experiment in a line: Antimicrobial activity against log-phase methicillin-resistant Staphylococcus aureus HUSA 304 assessed as resistant bacteria in tissue cage fluid selected on 4 ug/ml of compound measured on day 11 post treatment. It counts as functional, organism-based.
The subject of test [5] is Staphylococcus aureus. In words: Antimicrobial activity against log-phase methicillin-resistant Staphylococcus aureus HUSA 304 assessed as resistant bacteria on coverslip selected on 4 ug/ml of compound measured on day 11 post treatment. Format: functional, organism-based.
Test [6] concerns Staphylococcus aureus. The experiment in a line: Antimicrobial activity against methicillin-resistant Staphylococcus aureus HUSA 304 infected in Wistar rat assessed as decrease in bacterial load in tissue cage fluid at 50 mg/kg, ip administered every 12 hrs for 7 days measured on day 8 post treatment. It counts as functional. To be noted: route intraperitoneal.
The subject of test [7] is Staphylococcus aureus. In words: Antimicrobial activity against methicillin-resistant Staphylococcus aureus HUSA 304 infected in Wistar rat assessed as decrease in bacterial load in tissue cage fluid at 50 mg/kg, ip administered every 12 hrs for 7 days measured on day 11 post treatment. It counts as functional. To be noted: route intraperitoneal.

With `CN[C@H](CC(C)C)C(=O)N[C@H]1C(=O)N[C@@H](CC(N)=O)C(=O)N[C@H]2C(=O)N[C@H]3C(=O)N[C@H](C(=O)N[C@H](C(=O)O)c4cc(O)cc(O)c4-c4cc3ccc4O)[C@H](O)c3ccc(c(Cl)c3)Oc3cc2cc(c3O[C@@H]2O[C@H](CO)[C@@H](O)[C@H](O)[C@H]2O[C@H]2C[C@](C)(N)[C@H](O)[C@H](C)O2)Oc2ccc(cc2Cl)[C@H]1O` [VANCOMYCIN], the minimal bactericidal concentration (MBC) is 4 µg/mL in the test with Staphylococcus aureus [1] and over 32 µg/mL in the test with Staphylococcus aureus [2].
As for `CC(=O)NC[C@H]1CN(c2ccc(N3CCOCC3)c(F)c2)C(=O)O1` [LINEZOLID], the outcome with Staphylococcus aureus [3], with Staphylococcus aureus [4] and in the test with Staphylococcus aureus [5] was Active. The minimum bactericidal concentration (MBC) with Staphylococcus aureus [1] and with Staphylococcus aureus [2] was over 32 µg/mL throughout. Moreover, the log10cfu in the test on Staphylococcus aureus [6] is listed as 1.06; in the test with Staphylococcus aureus [7], 0.93.
